In patent US11485728B2, “Small molecules for the treatment of autoimmune diseases and cancer” (Athos Therapeutics, Inc., priority 2020, dated 2022):

How the values were obtained:
[1] = test system: colon tissue gene expression; test: Colon tissue gene expression (RNA-Seq) in TNBS-induced colitis mice; assay type: in vivo; conditions: for expression of genes related to inflammatory response: vs untreated
Procedure: Method: TNBS colitis: C57BL/6 mice (20-22 grams) were fed ad lib and assigned to 4 different groups (n=8/group). After a 72 hr acclimation period the test group groups received 25 mg/kg of test compound PO (gavage) in vehicle daily. A control group received vehicle alone. After 24 hrs, mice were weighed and TNBS was injected intra-colonically using 5 cm of polyethylene (¼ inch) tubing. Mice were then treated with the test compounds and weighed daily for 4 days. Mice were sacrificed on day 4 and clinical score was assessed. Intestinal tissue for and blood were also collected. Tissues were either flash frozen and kept in −80° C. for RNA and protein isolation or placed in 10% formalin solution for future histological analysis. Blood was spun at 5K rpm for 5 min and serum was collected and kept at −20° C. for multiplex cytokine analysis.
RNA Sequencing: RNA was extracted from mouse colon tissue at Athos Therapeutics and was sent at Zymo Research or the Technology Center for Genomics & Bioinformatics at UCLA for sequencing and partial bioinformatics analysis.
Libraries for RNA-Seq were prepared with KAPA Stranded mRNA-Seq Kit. The workflow consists of mRNA enrichment and fragmentation, first strand cDNA synthesis using random priming, followed by second strand synthesis converting cDNA:RNA hybrid to double-stranded cDNA (dscDNA), and incorporates dUTP into the second cDNA strand. cDNA generation is followed by end repair to generate blunt ends, A-tailing, adaptor ligation, and PCR amplification. Different adaptors were used for multiplexing samples in one lane. Sequencing was performed on NovaSeq6000 (SP) for a PE 2×150 run. Data quality checking was done on Illumina SAV. Data de-multiplexing was performed with Illumina Bcl2fastq v 2.19.1.403 software. The reads were mapped by STAR 2.27a and read counts per gene were quantified using the mouse Ensembl Musmusculus.GRCm38.97 GTF file. In Partek Flow (Partek® Flow® software, v7.0 Copyright©. 2019 Partek Inc., St. Louis, Mo., USA) read counts were normalized by CPM +1.0E-4.
Gene differential expression analysis and downstream gene enrichment analysis was performed at Athos Therapeutics. The DESeq2 R package was used for differential expression analysis. DESeq2 FDR cutoff: 0.05, DESeq2 Log 2FC cutoff: 1 (FC cutoff: 2). Gene enrichment analysis was performed using the Enrichr) (https://maayanlab.cloud/Enrichr/enrich) and gprofiler (https://biit.cs.ut.ee/gprofiler/gost) platforms.

colon cell line HCT = test: Gene expression (RNA-Seq) of colon cancer cells treated with Compound 156; assay type: cell-based, Human
Procedure: Methods: RNA was extracted from HTC colon cancer cells that has been treated or not with Compound 156 and was sent to the Technology Center for Genomics & Bioinformatics at UCLA for sequencing.
Library construction and sequencing methods: Libraries for RNA-Seq were prepared with TruSeq Stranded mRNA Library Prep Kit. The workflow consists of mRNA enrichment and fragmentation. Cleaved RNA fragments are copied into first strand cDNA using reverse transcriptase and random primers. Strand specificity is achieved by replacing dTTP with dUTP and followed by second strand cDNA synthesis using DNA Polymerase I and RNase H. cDNA generation is followed by A-tailing, adaptor ligation and PCR amplification. Different adaptors were used for multiplexing samples in one lane. Sequencing was performed on Illumina NovaSeq 6000 for PE 2×50 run. Data quality check was done on Illumina SAV. Demultiplexing was performed with Illumina Bcl2fastq v2.19.1.403 software.
Bioinformatics methods: The reads were mapped by STAR 2.27a to Human GRCh38 genome and read counts per gene were quantified using Ensembl Human GRCh38.98 GTF file. Gene differential expression analysis and downstream gene enrichment analysis was performed at Athos Therapeutics. The DESeq2 R package was used for differential expression analysis. DESeq2 FDR cutoff: 0.05, DESeq2 Log 2FC cutoff: 1 (FC cutoff: 2). Gene enrichment analysis was performed using the Enrichr (https://maayanlab.cloud/Enrichr/enrich) and gprofiler (https://biit.cs.ut.ee/gprofiler/gost) platforms.

C57BL/6 mice = test: MTD studies in mice; assay type: in vivo
in vitro = conditions: PAMPA, 5 hours at RT
[2] = cell cycle pathway, colon cell line HCT
[3] = p53 pathway, colon cell line HCT

COc1cc2c(NC3CCOCC3)nc(N3CCC(F)(F)CC3)nc2cc1OCCCN1CCCC1 [Compound 2, 2-(4,4-difluoropiperidin-1-yl)-6-methoxy-7-(3-(pyrrolidin-1-yl)propoxy)-N-(tetrahydro-2H-pyran-4-yl)quinazolin-4-amine]
expression of TNF [1]: significantly reduced expression
expression of infliximab marker genes [1]: significantly reduced expression
expression of pro-inflammatory cytokine and metalloproteinase pathway genes (22-gene signature) [1]: significantly reduced expression
number of inflammatory response genes with significantly reduced expression [1]: > 85 genes
Log2FC 1l6 ([1]; treated vs untreated): −4.82
Log2FC Ccl2 ([1]; treated vs untreated): −2.71
Log2FC Ccl3 ([1]; treated vs untreated): −7.36
Log2FC Ccl7 ([1]; treated vs untreated): −2.73
Log2FC Ccl9 ([1]; treated vs untreated): −1.15
Log2FC Csf3 ([1]; treated vs untreated): −6.66
Log2FC Csf3r ([1]; treated vs untreated): −3.19
Log2FC Cxcl1 ([1]; treated vs untreated): −6.03
Log2FC Cxcl2 ([1]; treated vs untreated): −8.30
Log2FC Cxcl3 ([1]; treated vs untreated): −10.19
Log2FC Cxcl5 ([1]; treated vs untreated): −6.57
Log2FC Il1a ([1]; treated vs untreated): −6.05
Log2FC Il1b ([1]; treated vs untreated): −6.17
Log2FC Il11 ([1]; treated vs untreated): −4.05
Log2FC Il13ra2 ([1]; treated vs untreated): −2.38
Log2FC Mmp3 ([1]; treated vs untreated): −4.47
Log2FC Osm ([1]; treated vs untreated): −4.67
Log2FC Osmr ([1]; treated vs untreated): −1.24
Log2FC Ptgs2 ([1]; treated vs untreated): −3.18
Log2FC Stc1 ([1]; treated vs untreated): −1.89
Log2FC Tnfrsf11b ([1]; treated vs untreated): −1.66
expression of genes related to inflammatory response [1]: significantly reduced expression levels

COc1cc2c(NC3CCN(C(C)C)CC3)nc(-n3ccnc3)nc2cc1OCCCN1CCCC1 [Compound 156, 2-(1H-imidazol-1-yl)-N-(1-isopropylpiperidin-4-yl)-6-methoxy-7-(3-(pyrrolidin-1-yl)propoxy)quinazolin-4-amine]
Log2 Fold Change BUB1 (colon cell line HCT; [2]): −5.157
Log2 Fold Change BUB1B (colon cell line HCT; [2]): −4.7094
Log2 Fold Change CCNA2 (colon cell line HCT; [2]): −5.163
Log2 Fold Change CCNB1 (colon cell line HCT; [2]): −4.231
Log2 Fold Change CCNB2 (colon cell line HCT; [2]): −5.041
Log2 Fold Change CCNE2 (colon cell line HCT; [2]): −5.409
Log2 Fold Change CDC6 (colon cell line HCT; [2]): −4.121
Log2 Fold Change CDC7 (colon cell line HCT; [2]): −2.499
Log2 Fold Change CDC20 (colon cell line HCT; [2]): −4.826
Log2 Fold Change CDC25A (colon cell line HCT; [2]): −2.858
Log2 Fold Change CDC25C (colon cell line HCT; [2]): −5.142
Log2 Fold Change CDC45 (colon cell line HCT; [2]): −4.679
Log2 Fold Change CDK1 (colon cell line HCT; [2]): −4.779
Log2 Fold Change CDKN2C (colon cell line HCT; [2]): −5.14
Log2 Fold Change CHEK1 (colon cell line HCT; [2]): −1.994
Log2 Fold Change CHEK2 (colon cell line HCT; [2]): −2.186
Log2 Fold Change DBF4 (colon cell line HCT; [2]): −2.536
Log2 Fold Change E2F1 (colon cell line HCT; [2]): −4.309
Log2 Fold Change E2F2 (colon cell line HCT; [2]): −5.296
Log2 Fold Change ESPL1 (colon cell line HCT; [2]): −4.821
Log2 Fold Change MAD2L1 (colon cell line HCT; [2]): −4.388
Log2 Fold Change MCM2 (colon cell line HCT; [2]): −3.686
Log2 Fold Change MCM3 (colon cell line HCT; [2]): −2.599
Log2 Fold Change MCM4 (colon cell line HCT; [2]): −3.347
Log2 Fold Change MCM5 (colon cell line HCT; [2]): −4.183
Log2 Fold Change MCM6 (colon cell line HCT; [2]): −3.834
Log2 Fold Change MCM7 (colon cell line HCT; [2]): −3.817
Log2 Fold Change ORC1 (colon cell line HCT; [2]): −4.987
Log2 Fold Change ORC6 (colon cell line HCT; [2]): −3.9103
Log2 Fold Change PKMYT1 (colon cell line HCT; [2]): −3.971
Log2 Fold Change PLK1 (colon cell line HCT; [2]): −4.8821
Log2 Fold Change PTTG1 (colon cell line HCT; [2]): −2.317
Log2 Fold Change RBL1 (colon cell line HCT; [2]): −3.043
Log2 Fold Change SKP2 (colon cell line HCT; [2]): −2.823
Log2 Fold Change SMC1A (colon cell line HCT; [2]): −1.934
Log2 Fold Change TTK (colon cell line HCT; [2]): −4.824
Log2 Fold Change WEE1 (colon cell line HCT; [2]): −2.394
number of genes activated by p53 that were upregulated (colon cell line HCT; data not shown): > 80 genes
number of genes regulated by E2F-1 and E2F-4 that were downregulated (colon cell line HCT; data not shown): > 500 genes
Log2 Fold Change CCND1 (colon cell line HCT; [3]): 1.792
Log2 Fold Change CD82 (colon cell line HCT; [3]): 1.878
Log2 Fold Change CDKN1A (colon cell line HCT; [3]): 3.19
Log2 Fold Change FAS (colon cell line HCT; [3]): 2.667
Log2 Fold Change GADD45A (colon cell line HCT; [3]): 1.969
Log2 Fold Change MDM2 (colon cell line HCT; [3]): 3.166
Log2 Fold Change PMAIP1 (colon cell line HCT; [3]): 3.102
Log2 Fold Change RRM2B (colon cell line HCT; [3]): 2.678
Log2 Fold Change SERPINB5 (colon cell line HCT; [3]): 2.471
Log2 Fold Change SERPINE1 (colon cell line HCT; [3]): 3.232
Log2 Fold Change SESN1 (colon cell line HCT; [3]): 1.955
Log2 Fold Change SESN2 (colon cell line HCT; [3]): 2.19
Log2 Fold Change THBS1 (colon cell line HCT; [3]): 1.872
Log2 Fold Change TP53I3 (colon cell line HCT; [3]): 3.87
Log2 Fold Change ZMAT3 (colon cell line HCT; [3]): 3.367
genes related to cell cycle (colon cell line HCT; treated vs not treated): downregulated
p-53 related genes (colon cell line HCT; treated vs not treated): upregulated

COc1cc2c(NC3CCN(C(C)C)CC3)nc(N3CCC(F)(F)CC3)nc2cc1OCCCN1CCCC1 [Compound 400, 2-(4,4-difluoropiperidin-1-yl)-N-(1-isopropylpiperidin-4-yl)-6-methoxy-7-(3-(pyrrolidin-1-yl)propoxy)quinazolin-4-amine, reference compound]
expression of genes related to inflammatory response [1]: did not have any effect
effects in weight change (MTD studies) (C57BL/6 mice; 50 mg/kg daily oral): not cause any effects in weight change
Papp (in vitro; PAMPA permeability Classification, 20 μM donor): 0.055 to 1.5 ×10⁻⁶ cm/s
Papp (in vitro; Permeability, Pe, 20 μM donor in PBS/MeOH 90:10): 0.178 ×10⁻⁶ cm/s

COc1cc2c(NC3CCS(=O)(=O)CC3)nc(N3CCC(F)(F)CC3)nc2cc1OCCCN1CCCC1 [Compound 1, 4-((2-(4,4-difluoropiperidin-1-yl)-6-methoxy-7-(3-(pyrrolidin-1-yl)propoxy)quinazolin-4-yl)amino)tetrahydro-2H-thiopyran 1,1-dioxide]
effects in weight change (MTD studies) (C57BL/6 mice; mouse, in vivo, po): not cause any effects in weight change
